# Test results as given in PubChem BioAssay AID192 (DTP/NCI, 2004).
# “And” between values parts separate entries of the source, which are not always exact repeats. Identical values can stand only once. Inconclusive results and toxic doses are left out.
# Test system: BDF1 mice, B16 melanoma ip, median survival T/C
# Test: NCI In Vivo Anticancer Drug Screen. Data for tumor model B16 Melanoma (intraperitoneal) in B6D2F1 (BDF1) mice
# Details: endpoint: median survival time, higher = longer survival
# Procedure, shortened: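 In this screen, activity was judged from survival or tumor size in treated versus vehicle-treated tumor-bearing mice, reported as T/C.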
# [1] = dose: 50.0 mg/kg/injection, schedule: Q01DX009 (ip), vehicle: Klucel (hydroxypropylcellulose) (HPC)
# [2] = dose: 100.0 mg/kg/injection, schedule: Q01DX009 (ip), vehicle: Klucel (hydroxypropylcellulose) (HPC)
# [3] = dose: 50.0 mg/kg/injection, schedule: Q01DX009 (ip), vehicle: saline
# [4] = dose: 100.0 mg/kg/injection, schedule: Q01DX009 (ip), vehicle: saline
# [5] = dose: 200.0 mg/kg/injection, schedule: Q01DX009 (ip), vehicle: saline
# [6] = dose: 200.0 mg/kg/injection, schedule: Q01DX009 (ip), vehicle: Klucel (hydroxypropylcellulose) (HPC)
# [7] = dose: 25.0 mg/kg/injection, schedule: Q01DX009 (ip), vehicle: saline
# [8] = dose: 12.5 mg/kg/injection, schedule: Q01DX009 (ip), vehicle: Klucel (hydroxypropylcellulose) (HPC)
# [9] = dose: 25.0 mg/kg/injection, schedule: Q01DX009 (ip), vehicle: Klucel (hydroxypropylcellulose) (HPC)
# [10] = dose: 6.25 mg/kg/injection, schedule: Q01DX009 (ip), vehicle: saline with Tween-80
# [11] = dose: 12.5 mg/kg/injection, schedule: Q01DX009 (ip), vehicle: saline with Tween-80
# [12] = dose: 25.0 mg/kg/injection, schedule: Q01DX009 (ip), vehicle: saline with Tween-80
smiles,measurement,setting,value
Cc1c2cc[n+](C)c(C)c2cc2c1[nH]c1ccccc12,T/C,"dose: 10.0 mg/kg/injection, schedule: Q04DX003 (ip), vehicle: water",95 % of control
same,T/C,"dose: 20.0 mg/kg/injection, schedule: Q04DX003 (ip), vehicle: water",92 % of control
same,T/C,"dose: 40.0 mg/kg/injection, schedule: Q04DX003 (ip), vehicle: water",94 % of control
CC1CCCN(C)C1 (stereo not drawn),T/C,[1],117 % of control
same,T/C,[2],120 % of control
CCCCCCCCCCCCCCCCCC(=O)[O][Pb]([CH3])([CH3])[CH3],T/C,"dose: 1.25 mg/kg/injection, schedule: Q01DX009 (ip), vehicle: Klucel (hydroxypropylcellulose) (HPC)",99 % of control
same,T/C,"dose: 2.5 mg/kg/injection, schedule: Q01DX009 (ip), vehicle: Klucel (hydroxypropylcellulose) (HPC)",99 % of control
same,T/C,"dose: 5.0 mg/kg/injection, schedule: Q01DX009 (ip), vehicle: Klucel (hydroxypropylcellulose) (HPC)",91 % of control
CC1(C)N=C(N)N=C(N)N1c1ccc(CCCCc2cccc(S(=O)(=O)F)c2)c(Cl)c1,T/C,"dose: 8.0 mg/kg/injection, schedule: Q01DX009 (ip), vehicle: saline",108 % of control
same,T/C,"dose: 12.0 mg/kg/injection, schedule: Q01DX009 (ip), vehicle: saline",116 % of control
same,T/C,"dose: 18.0 mg/kg/injection, schedule: Q01DX009 (ip), vehicle: saline",118 % of control
same,T/C,"dose: 27.0 mg/kg/injection, schedule: Q01DX009 (ip), vehicle: saline",124 % of control
c1ccc(C[P+](c2ccccc2)(c2ccccc2)c2ccccc2)cc1,T/C,"dose: 2.5 mg/kg/injection, schedule: Q01DX009 (ip), vehicle: other",92 % of control
same,T/C,"dose: 5.0 mg/kg/injection, schedule: Q01DX009 (ip), vehicle: other",94 % of control
same,T/C,"dose: 10.0 mg/kg/injection, schedule: Q01DX009 (ip), vehicle: other",94 % of control
same,T/C,"dose: 20.0 mg/kg/injection, schedule: Q01DX009 (ip), vehicle: other",89 % of control
C#CC[N+]12CN3CN(CN(C3)C1)C2,T/C,[3],104 % of control
same,T/C,[4],100 % of control
same,T/C,[5],107 % of control
O=[N+]([O-])c1ccc2nc(-c3ccccc3)c(-c3ccccc3)nc2c1,T/C,[2],102 % of control
same,T/C,[6],88 % of control
CCOC(=O)C(=Cc1ccccc1Cl)C(=O)OCC,T/C,"dose: 50.0 mg/kg/injection, schedule: Q04DX003 (ip), vehicle: Klucel (hydroxypropylcellulose) (HPC)",99 % of control
same,T/C,"dose: 100.0 mg/kg/injection, schedule: Q04DX003 (ip), vehicle: Klucel (hydroxypropylcellulose) (HPC)",107 % of control
same,T/C,"dose: 200.0 mg/kg/injection, schedule: Q04DX003 (ip), vehicle: Klucel (hydroxypropylcellulose) (HPC)",95 % of control
COc1cc(/C=C/C(N)=O)cc(OC)c1OC,T/C,[7],107 % of control
same,T/C,[4],94 % of control
same,T/C,[5],102 % of control
O=S1(=O)OCc2ccccc21,T/C,[8],115 % of control
same,T/C,[9],108 % of control
same,T/C,[1],118 % of control
N#Cc1ccc(C(=O)C=C(C(F)(F)F)C(F)(F)F)cc1,T/C,"dose: 1.56 mg/kg/injection, schedule: Q01DX009 (ip), vehicle: saline with Tween-80",99 % of control
same,T/C,"dose: 3.12 mg/kg/injection, schedule: Q01DX009 (ip), vehicle: saline with Tween-80",100 % of control
same,T/C,[10],99 % of control
same,T/C,[11],93 % of control
O=C1c2ccccc2C(=O)c2c(NCCNCCO)ccc(O)c21,T/C,"dose: 2.5 mg/kg/injection, schedule: Q01DX009 (ip), vehicle: suspension in saline",110 % of control
same,T/C,"dose: 5.0 mg/kg/injection, schedule: Q01DX009 (ip), vehicle: suspension in saline",119 % of control
same,T/C,"dose: 10.0 mg/kg/injection, schedule: Q01DX009 (ip), vehicle: suspension in saline",119 % of control
same,T/C,"dose: 20.0 mg/kg/injection, schedule: Q01DX009 (ip), vehicle: suspension in saline",171 % of control
same,T/C,"dose: 80.0 mg/kg/injection, schedule: Q01DX009 (ip), vehicle: suspension in saline",181 % of control
Nc1cc(NC(=O)c2ccc(Cl)cc2)ccc1S(=O)(=O)O,T/C,"dose: 3.12 mg/kg/injection, schedule: Q01DX009 (ip), vehicle: Klucel (hydroxypropylcellulose) (HPC)",94 % of control
same,T/C,"dose: 6.25 mg/kg/injection, schedule: Q01DX009 (ip), vehicle: Klucel (hydroxypropylcellulose) (HPC)",99 % of control
same,T/C,[8],96 % of control
same,T/C,[9],98 % of control
same,T/C,[1],98 % of control
CCCCCOC(CN)C(Cl)(Cl)Cl (stereo not drawn),T/C,"dose: 12.5 mg/kg/injection, schedule: Q01DX009 (ip), vehicle: saline",93 % of control
same,T/C,[7],100 % of control
same,T/C,[3],102 % of control
C=CCCCCCCCCC(=O)N(CCOC)CCOC,T/C,[12],115 % of control
same,T/C,"dose: 25.0 mg/kg/injection, schedule: Q04DX003 (ip), vehicle: saline with Tween-80",97 % of control
same,T/C,"dose: 50.0 mg/kg/injection, schedule: Q01DX009 (ip), vehicle: saline with Tween-80",102 % of control
same,T/C,"dose: 50.0 mg/kg/injection, schedule: Q04DX003 (ip), vehicle: saline with Tween-80",91 % of control
same,T/C,"dose: 100.0 mg/kg/injection, schedule: Q04DX003 (ip), vehicle: saline with Tween-80",89 % of control
CC[n+]1c(C)ccc2ccccc21,T/C,"dose: 25.0 mg/kg/injection, schedule: Q01DX009 (ip), vehicle: carboxymethylcellulose (CMC)",112 % of control
same,T/C,"dose: 50.0 mg/kg/injection, schedule: Q01DX009 (ip), vehicle: carboxymethylcellulose (CMC)",96 % of control
Cc1cnc2c(=O)[nH]c(=O)[nH]c2n1,T/C,[2],90 % of control
same,T/C,"dose: 400.0 mg/kg/injection, schedule: Q01DX009 (ip), vehicle: Klucel (hydroxypropylcellulose) (HPC)",93 % of control
Fc1ccc(/C=C2/c3cc(Cl)ccc3-c3c(Cl)cc(Cl)cc32)cc1,T/C,[10],90 % of control
same,T/C,[11],90 % of control
same,T/C,[12],95 % of control
ClCC[N+]12CC[N+](CCCl)(CC1)C2 (tested in a mixture with another compound),T/C,[3],120 % of control
same,T/C,[4],115 % of control
same,T/C,[5],121 % of control
Cc1cc(C)nc(NC(=O)COc2ccc(Cl)cc2)c1,T/C,[8],97 % of control
same,T/C,[1],97 % of control and 106 % of control
O=NN1CCNC1=O,T/C,"dose: 1.5 mg/kg/injection, schedule: Q01DX009 (ip), vehicle: Klucel (hydroxypropylcellulose) (HPC)",98 % of control
same,T/C,"dose: 3.0 mg/kg/injection, schedule: Q01DX009 (ip), vehicle: Klucel (hydroxypropylcellulose) (HPC)",110 % of control
same,T/C,"dose: 6.0 mg/kg/injection, schedule: Q01DX009 (ip), vehicle: Klucel (hydroxypropylcellulose) (HPC)",101 % of control
CN1CCc2cc3c(cc2C1)OCO3,T/C,[7],94 % of control
same,T/C,[3],93 % of control
same,T/C,[4],95 % of control
CC1(C)N=C(N)N=C(N)N1c1ccc(CCc2ccccc2)cc1,T/C,"dose: 0.75 mg/kg/injection, schedule: Q01DX009 (ip), vehicle: saline with Tween-80",97 % of control
same,T/C,"dose: 1.5 mg/kg/injection, schedule: Q01DX009 (ip), vehicle: saline with Tween-80",100 % of control
same,T/C,"dose: 3.0 mg/kg/injection, schedule: Q01DX009 (ip), vehicle: saline with Tween-80",102 % of control
same,T/C,"dose: 6.0 mg/kg/injection, schedule: Q01DX009 (ip), vehicle: saline with Tween-80",95 % of control
CCCCCCCCCCCCCOC(=O)CC(C(=O)OCCCCCCCCCCCCC)S(=O)(=O)O (stereo not drawn),T/C,[8],106 % of control
same,T/C,[9],108 % of control
same,T/C,[1],106 % of control
same,T/C,[2],93 % of control
same,T/C,[6],111 % of control
C/C=C(\C)c1cc(=O)c2c(C)cc3c(c2o1)C(=O)c1c(O)c(C2CC(C)(N(C)C)C(O)C(C)O2)cc(C2CC(N(C)C)C(O)C(C)O2)c1C3=O (stereo not drawn),T/C,"dose: 0.5 mg/kg/injection, schedule: Q01DX009 (ip), vehicle: Klucel (hydroxypropylcellulose) (HPC)",104 % of control
same,T/C,"dose: 31.0 micrograms/kg/injection, schedule: Q01DX009 (ip), vehicle: saline",102 % of control
same,T/C,"dose: 39.06 micrograms/kg/injection, schedule: Q01DX009 (ip), vehicle: saline",123 % of control
same,T/C,"dose: 62.0 micrograms/kg/injection, schedule: Q01DX009 (ip), vehicle: saline",113 % of control
same,T/C,"dose: 156.0 micrograms/kg/injection, schedule: Q01DX009 (ip), vehicle: saline",118 % of control
same,T/C,"dose: 250.0 micrograms/kg/injection, schedule: Q01DX009 (ip), vehicle: saline",105 % of control
same,T/C,"dose: 312.5 micrograms/kg/injection, schedule: Q01DX009 (ip), vehicle: saline",122 % of control
same,T/C,"dose: 625.0 micrograms/kg/injection, schedule: Q01DX009 (ip), vehicle: saline",94 % of control and 100 % of control
O=C1N[C@@H]2C(=C[C@H](O)[C@@H](O)[C@H]2O)c2cc3c(c(O)c21)OCO3,T/C,"dose: 2.5 mg/kg/injection, schedule: Q01DX009 (ip), vehicle: saline with Tween-80",111 % of control
